# Earlier results, collected in patent US4294824A, “Extracts of the hemopoietic system” (priority 1975, dated 1981).
# Conditions: lists continue in the following blocks
row,Structure (SMILES),SOME SIDE EFFECTS AND MAJOR TOXICITY
1,"O=P1(N(CCCl)CCCl)NCCCO1 (centres unmarked) [CYCLOPHOSPHAMIDE, cyclophosphamide]","Leucopenia, anorexia, nausea, vomiting. diarrhoea"
2,"Nc1ccn([C@@H]2O[C@H](CO)[C@@H](O)[C@@H]2O)c(=O)n1 [CYTOSINE ARABINOSIDE, cystosine arabinoside]","Myelosuppression, bone marrow depression, nausea"
3,"COc1cccc2c1C(=O)c1c(O)c3c(c(O)c1C2=O)C[C@@](O)(C(C)=O)C[C@@H]3O[C@H]1C[C@H](N)[C@H](O)[C@H](C)O1 [DAUNORUBICIN, daunorubicin]","Myelosuppression, leucopenia, anaemia"
4,"CN(Cc1cnc2nc(N)nc(N)c2n1)c1ccc(C(=O)N[C@@H](CCC(=O)O)C(=O)O)cc1 [METHOTREXATE, methotrexate]","Myelosuppression, bone marrow depression, leucopenia"
5,"CC[C@]1(O)C[C@H]2CN(CCc3c([nH]c4ccccc34)[C@@](C(=O)OC)(c3cc4c(cc3OC)N(C=O)[C@H]3[C@@](O)(C(=O)OC)[C@H](OC(C)=O)[C@]5(CC)C=CCN6CC[C@]43[C@@H]65)C2)C1 [VINCRISTINE, vincristine]","Peripheral neuropathy, adynamic ileus, myopathy"
